Assay results reported in paper PMC9097471, “Development of Selective Phosphatidylinositol 5-Phosphate 4-Kinase γ Inhibitors with a Non-ATP-competitive, Allosteric Binding Mode” (Journal of Medicinal Chemistry, 2022).

Legend:
PI5P4Kγ-WT = target: T1, PI5P4Kγ-WT (Homo sapiens, UniProt Q8TBX8); experiment: Thermal shift assay; details: read-out: ΔTm PI5P4Kγ WT, thermal shift, compound 63 μM
T1 sequence (Q8TBX8 1-421): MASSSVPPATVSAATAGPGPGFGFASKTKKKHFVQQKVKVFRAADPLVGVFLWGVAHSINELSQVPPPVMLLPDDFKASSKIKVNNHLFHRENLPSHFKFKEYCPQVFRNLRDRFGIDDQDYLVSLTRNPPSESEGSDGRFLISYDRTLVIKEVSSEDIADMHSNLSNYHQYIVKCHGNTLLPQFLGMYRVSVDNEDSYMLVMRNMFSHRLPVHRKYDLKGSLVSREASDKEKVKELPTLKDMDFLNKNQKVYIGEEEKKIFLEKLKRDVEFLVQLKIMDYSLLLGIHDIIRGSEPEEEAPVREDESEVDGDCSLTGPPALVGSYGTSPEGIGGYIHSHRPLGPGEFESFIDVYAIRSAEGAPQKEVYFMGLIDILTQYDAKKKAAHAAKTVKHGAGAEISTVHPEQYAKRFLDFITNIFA

PI5P4Kα-WT = target: T2, PI5P4Kα-WT (Homo sapiens, UniProt P48426); experiment: ADP-Glo inhibition assay; details: ADP-Glo
T2 sequence (P48426 1-406): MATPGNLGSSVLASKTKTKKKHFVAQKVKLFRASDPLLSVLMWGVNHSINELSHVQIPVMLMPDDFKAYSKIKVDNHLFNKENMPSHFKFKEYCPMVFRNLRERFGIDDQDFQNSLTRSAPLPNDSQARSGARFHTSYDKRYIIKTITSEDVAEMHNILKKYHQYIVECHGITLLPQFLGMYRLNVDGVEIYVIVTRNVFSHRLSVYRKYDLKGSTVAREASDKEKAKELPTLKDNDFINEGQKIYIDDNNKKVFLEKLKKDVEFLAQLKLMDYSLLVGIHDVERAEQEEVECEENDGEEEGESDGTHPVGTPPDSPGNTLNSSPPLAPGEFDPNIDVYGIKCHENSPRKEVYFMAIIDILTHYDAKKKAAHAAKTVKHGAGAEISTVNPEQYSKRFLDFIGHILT
Source text: (§1) To enable direct comparisons, Promega’s ADP-Glo reporter assay was developed using a mutant form of the kinase. […] To mitigate concerns about being misled by the use of the PI5P4Kγ+ construct and the possible introduction of PI5P4Kα activity into the molecules, our screening cascade included the measurement of ADP-Glo activity at PI5P4Kα-WT (and PI5P4Kβ-WT to fully understand emerging selectivity profiles).

PI5P4Kβ-WT = target: T3, PI5P4Kβ-WT (Homo sapiens, UniProt P78356); experiment: ADP-Glo inhibition assay; details: ADP-Glo
T3 sequence (P78356 1-416): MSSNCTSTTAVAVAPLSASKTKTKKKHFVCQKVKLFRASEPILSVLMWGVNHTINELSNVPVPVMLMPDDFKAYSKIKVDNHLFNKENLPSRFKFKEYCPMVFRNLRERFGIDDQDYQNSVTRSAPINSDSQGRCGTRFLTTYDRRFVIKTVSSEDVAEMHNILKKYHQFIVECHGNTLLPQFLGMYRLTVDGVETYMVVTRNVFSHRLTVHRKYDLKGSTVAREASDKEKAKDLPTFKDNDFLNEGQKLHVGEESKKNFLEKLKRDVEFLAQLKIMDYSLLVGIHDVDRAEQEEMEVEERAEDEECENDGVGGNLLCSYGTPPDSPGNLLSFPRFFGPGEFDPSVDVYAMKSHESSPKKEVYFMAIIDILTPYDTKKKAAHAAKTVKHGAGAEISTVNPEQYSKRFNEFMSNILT
Source text: as §1

PI5P4Kγ+ = target: T4, PI5P4Kγ+ (Homo sapiens, UniProt Q8TBX8, D138G/D197E/E133P/E135D/E153T/E196G/G136S/G139A/N195G/S132L/S134N); experiment: ADP-Glo inhibition assay; assay type: biochemical; details: for IC50: ADP-Glo, mutant PI5P4Kγ+ construct, read-out: PI5P4Kγ+ pIC50 (converted); for PI5P4Kγ+ LE: ligand efficiency from PI5P4Kγ+ pIC50
T4 construct: GST (N, cleaved yes); made in house; host or cells: E. coli BL21(DE3), pGEX6P
T4 sequence (Q8TBX8 with tags, fused parts or gaps INS131LPN/S132D/E133S/S134Q/E135A/G136R/D138G/G139A/E153T/N195G/E196G/D197E): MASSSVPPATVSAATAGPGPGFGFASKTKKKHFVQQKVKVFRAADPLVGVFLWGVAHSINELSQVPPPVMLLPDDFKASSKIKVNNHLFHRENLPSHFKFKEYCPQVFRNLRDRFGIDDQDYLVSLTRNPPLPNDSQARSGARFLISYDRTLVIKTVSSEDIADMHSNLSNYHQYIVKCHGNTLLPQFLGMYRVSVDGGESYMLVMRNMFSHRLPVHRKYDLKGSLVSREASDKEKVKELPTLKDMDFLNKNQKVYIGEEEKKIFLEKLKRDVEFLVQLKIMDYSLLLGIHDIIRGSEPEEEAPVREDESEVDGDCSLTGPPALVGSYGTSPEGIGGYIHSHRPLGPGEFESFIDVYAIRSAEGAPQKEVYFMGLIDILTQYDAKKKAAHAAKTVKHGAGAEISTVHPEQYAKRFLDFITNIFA
Method: Recombinant mutant PI5P4Kγ+ was prepared essentially as described previously.[25] […] Cultures were induced with 0.4 mM IPTG and probe sonicated in the presence of protease inhibitors. The GST fusion protein of PI5P4Kγ+ was harvested by binding to glutathione sepharose beads (Cytiva) and cleaved in situ with 50U of PreScission protease (Cytiva) for 4 h at 4 °C. The cleaved protein was further purified by size-exclusion chromatography (AKTA Pure, Cytiva). The protein purity was confirmed by sodium dodecyl sulphate–polyacrylamide gel electrophoresis, and the concentration was determined by colorimetric assay (Bio-Rad).
Statistical analysis was performed using nonparametric testing in Prism 8 (GraphPad). Activity pIC50 values and in vivo binding pEC50 values were estimated using a 4-parameter fit (Dotmatics).

| SMILES | ΔTm at 63 µM (PI5P4Kγ-WT) | PI5P4Kα pIC50 (PI5P4Kα-WT) | PI5P4Kβ pIC50 (PI5P4Kβ-WT) | IC50 (PI5P4Kγ+) | PI5P4Kγ+ LE (PI5P4Kγ+) |
| --- | --- | --- | --- | --- | --- |
| c1ccc(-c2nc(NCc3cccs3)c3ccccc3n2)cc1 [Compound 6] | -1.1 °C | <4.3 | <4.6 | > 50.1 µM | – |
| Cc1ccccc1-c1nc(NCc2cccs2)c2ccccc2n1 [Compound 7] | 2.7 °C | <4.3 | <4.6 | > 31.6 µM | – |
| COc1ccccc1-c1nc(NCc2cccs2)c2ccccc2n1 [Compound 8] | 0.1 °C | <4.6 | <4.6 | > 50.1 µM | – |
| Clc1ccc(-c2nc(NCc3cccs3)c3ccccc3n2)cc1 [Compound 9] | -1.6 °C | <4.3 | – | > 50.1 µM | – |
| FC(F)(F)c1ccccc1-c1nc(NCC2CCCCC2)c2ccccc2n1 [Compound 10] | -0.8 °C | <4.3 | <4.6 | > 50.1 µM | – |
| FC(F)(F)c1ccccc1-c1nc(NCc2ccccc2)c2ccccc2n1 [Compound 11] | 4.6 °C | <4.3 | <4.6 | 6.31 µM | 0.26 |
| FC(F)(F)c1ccccc1-c1nc(NCc2cccnc2)c2ccccc2n1 [Compound 12] | 1.4 °C | <4.3 | – | > 50.1 µM | – |
| FC(F)(F)c1ccccc1-c1nc(NCCc2cccs2)c2ccccc2n1 [Compound 15] | – | <4.3 | – | > 50.1 µM | – |

More lines, now with the values ahead:

| ΔTm at 63 µM (PI5P4Kγ-WT) | PI5P4Kα pIC50 (PI5P4Kα-WT) | PI5P4Kβ pIC50 (PI5P4Kβ-WT) | IC50 (PI5P4Kγ+) | PI5P4Kγ+ LE (PI5P4Kγ+) | SMILES |
| --- | --- | --- | --- | --- | --- |
| 6.1 °C | <4.3 | – | 3.16 µM | 0.27 | FC(F)(F)c1ccccc1-c1nc(NCc2cnccn2)c2ccccc2n1 [Compound 13] |
| – | <4.3 | – | 1 µM | 0.29 | Fc1ccc(-c2nc(NCc3ccccn3)c3ccccc3n2)c(C(F)(F)F)c1 [Compound 16] |
| – | <4.3 | – | 3.98 µM | 0.26 | Fc1ccc(C(F)(F)F)c(-c2nc(NCc3ccccn3)c3ccccc3n2)c1 [Compound 17] |
| 1.3 °C | <4.3 | – | > 50.1 µM | – | FC(F)(F)c1cccc(-c2nc(NCc3ccccn3)c3ccccc3n2)c1 [Compound 18] |
| 1.7 °C | <4.3 | – | > 50.1 µM | – | FC(F)(F)c1ccc(-c2nc(NCc3ccccn3)c3ccccc3n2)cc1 [Compound 19] |
| 5.1 °C | <4.3 | – | 7.94 µM | 0.27 | COc1cccc(-c2nc(NCc3ccccn3)c3ccccc3n2)c1 [Compound 20] |
| 5.1 °C | <4.3 | – | 7.94 µM | 0.27 | COc1ccc(-c2nc(NCc3ccccn3)c3ccccc3n2)cc1 [Compound 21] |
| – | <4.3 | – | 2.51 µM | 0.29 | c1ccc(CNc2nc(-c3ccccc3C3CC3)nc3ccccc23)nc1 [Compound 23] |
